From BindingDB's records for doi:10.1016/j.ejmech.2017.04.013 (Ghent University, 2017)

Columns and labels:
Histone deacetylase 1 = Histone deacetylase 1 (Homo sapiens, UniProt Q13547); test: Inhibition of HDAC1 (unknown origin)
Histone deacetylase 9 = Histone deacetylase 9 (Homo sapiens, UniProt Q9UKV0); test: ChEBML_1684755
[1] = biological target: Histone deacetylase 8 (Homo sapiens) (UniProt Q9BY41); test: Inhibition of recombinant human HDAC8 using Boc-Lys (Ac)-AMC substrate by fluorescence assay
Chain of Histone deacetylase 8 (Homo sapiens) (Q9BY41 whole entry, looked up): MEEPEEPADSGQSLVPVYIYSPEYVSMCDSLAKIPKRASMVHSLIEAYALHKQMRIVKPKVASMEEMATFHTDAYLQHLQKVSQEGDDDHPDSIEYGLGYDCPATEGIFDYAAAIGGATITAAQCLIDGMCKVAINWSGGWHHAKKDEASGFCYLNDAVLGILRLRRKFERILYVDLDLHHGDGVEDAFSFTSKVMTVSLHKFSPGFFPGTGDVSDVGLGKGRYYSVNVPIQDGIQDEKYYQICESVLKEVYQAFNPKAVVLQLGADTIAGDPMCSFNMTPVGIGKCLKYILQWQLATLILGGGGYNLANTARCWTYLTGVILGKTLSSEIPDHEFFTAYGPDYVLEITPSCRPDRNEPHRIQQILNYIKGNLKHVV

Chain of Histone deacetylase 1 (Q13547 whole entry): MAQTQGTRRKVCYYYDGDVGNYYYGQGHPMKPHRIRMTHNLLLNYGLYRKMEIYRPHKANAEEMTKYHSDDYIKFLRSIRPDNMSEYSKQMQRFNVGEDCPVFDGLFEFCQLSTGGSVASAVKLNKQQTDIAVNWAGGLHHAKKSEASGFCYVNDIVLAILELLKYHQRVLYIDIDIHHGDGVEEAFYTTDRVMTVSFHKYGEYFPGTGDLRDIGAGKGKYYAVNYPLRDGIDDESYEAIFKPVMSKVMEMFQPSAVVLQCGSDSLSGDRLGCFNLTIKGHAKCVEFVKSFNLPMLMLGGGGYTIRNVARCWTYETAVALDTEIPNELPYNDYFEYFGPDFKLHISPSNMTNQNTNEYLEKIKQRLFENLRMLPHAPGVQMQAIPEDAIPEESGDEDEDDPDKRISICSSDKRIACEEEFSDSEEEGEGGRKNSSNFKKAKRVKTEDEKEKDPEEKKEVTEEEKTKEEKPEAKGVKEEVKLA
Chain of Histone deacetylase 9 (Q9UKV0 whole entry): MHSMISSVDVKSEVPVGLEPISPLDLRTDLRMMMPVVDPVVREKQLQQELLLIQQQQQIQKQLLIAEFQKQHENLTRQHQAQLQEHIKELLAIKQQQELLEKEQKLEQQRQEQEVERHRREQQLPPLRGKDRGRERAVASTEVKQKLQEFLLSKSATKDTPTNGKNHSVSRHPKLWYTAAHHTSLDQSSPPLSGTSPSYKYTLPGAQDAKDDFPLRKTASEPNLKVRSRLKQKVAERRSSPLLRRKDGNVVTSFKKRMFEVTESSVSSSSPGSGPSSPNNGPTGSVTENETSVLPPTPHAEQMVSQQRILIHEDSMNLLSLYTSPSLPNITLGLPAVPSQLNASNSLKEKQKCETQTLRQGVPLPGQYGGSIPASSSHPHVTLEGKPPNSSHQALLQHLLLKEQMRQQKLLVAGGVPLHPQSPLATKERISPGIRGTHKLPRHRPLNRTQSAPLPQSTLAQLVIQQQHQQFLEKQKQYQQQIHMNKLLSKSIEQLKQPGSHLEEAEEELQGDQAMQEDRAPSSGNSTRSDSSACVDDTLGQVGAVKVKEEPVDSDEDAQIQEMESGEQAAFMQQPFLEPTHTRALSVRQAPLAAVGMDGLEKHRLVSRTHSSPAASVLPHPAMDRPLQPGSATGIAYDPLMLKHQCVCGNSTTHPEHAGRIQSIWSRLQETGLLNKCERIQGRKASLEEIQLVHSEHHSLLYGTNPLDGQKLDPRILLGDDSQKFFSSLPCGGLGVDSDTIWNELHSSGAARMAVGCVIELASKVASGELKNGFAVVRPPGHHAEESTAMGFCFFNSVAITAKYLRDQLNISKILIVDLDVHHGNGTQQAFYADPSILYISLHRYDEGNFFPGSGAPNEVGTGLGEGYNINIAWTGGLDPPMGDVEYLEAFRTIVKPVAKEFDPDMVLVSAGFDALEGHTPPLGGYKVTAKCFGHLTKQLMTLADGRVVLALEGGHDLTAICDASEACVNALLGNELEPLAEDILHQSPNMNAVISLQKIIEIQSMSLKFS

Compound: Cc1nc2ccccc2n1Cc1ccc(C(=O)NO)cc1F
- IC50 (Histone deacetylase 1): 9000 nM
- IC50 (Histone deacetylase 9): 70 nM

Compound: O=C(NO)c1ccc(Cn2cc(-c3ccc(CN4CCCC4)cc3)nn2)cc1
- IC50 [1]: 280 nM
